Experimental data as given in PubChem BioAssay AID330 (DTP/NCI, 2004).
“And” between values parts separate entries of the source, which are not always exact repeats. Equal entries are not always repeated. Inconclusive results and toxic doses are left out. How the source made its calls: active means survival T/C of 150% or more; inactive means T/C below 125% in these data.

Test system: P388 leukemia ip, CD2F1 mice, survival T/C
Assay: NCI In Vivo Anticancer Drug Screen. Data for tumor model P388 Leukemia (intraperitoneal) in CD2F1 (CDF1) mice
Settings: endpoint: median survival time, higher = longer survival
Summary of the method: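 Mice carrying the transplanted tumor received test compound or vehicle. Survival was recorded in each group, and the value is the treated-group measurement divided by that of the vehicle-treated control group.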

[1] = dose: 2.5 mg/kg/injection, schedule: Q01DX009 (ip), vehicle: saline with Tween-80
[2] = dose: 5.0 mg/kg/injection, schedule: Q01DX009 (ip), vehicle: saline with Tween-80
[3] = dose: 10.0 mg/kg/injection, schedule: Q01DX009 (ip), vehicle: saline with Tween-80
[4] = dose: 12.5 mg/kg/injection, schedule: Q04DX003 (ip), vehicle: saline with Tween-80
[5] = dose: 25.0 mg/kg/injection, schedule: Q04DX003 (ip), vehicle: saline with Tween-80
[6] = dose: 100.0 mg/kg/injection, schedule: Q01DX005 (ip), vehicle: saline with Tween-80
[7] = dose: 100.0 mg/kg/injection, schedule: Q01DX009 (ip), vehicle: saline with Tween-80
[8] = dose: 100.0 mg/kg/injection, schedule: Q04DX003 (ip), vehicle: saline
[9] = dose: 200.0 mg/kg/injection, schedule: Q04DX003 (ip), vehicle: saline
[10] = dose: 400.0 mg/kg/injection, schedule: Q04DX003 (ip), vehicle: saline
[11] = dose: 50.0 mg/kg/injection, schedule: Q01DX009 (ip), vehicle: saline with Tween-80
[12] = dose: 200.0 mg/kg/injection, schedule: Q01DX009 (ip), vehicle: saline with Tween-80
[13] = dose: 50.0 mg/kg/injection, schedule: Q01DX005 (ip), vehicle: saline with Tween-80

Measured: T/C

COC(=O)C12Oc3ccc(-c4ccc5c(c4O)C(O)=C4C(=O)CC(C)C(O)C4(C(=O)OC)O5)c(O)c3C(O)=C1C(=O)CC(C)C2O (stereo not drawn)
inactive: dose: 0.39 mg/kg/injection, schedule: Q01DX009 (ip), vehicle: saline with Tween-80 100 % of control | dose: 0.78 mg/kg/injection, schedule: Q01DX009 (ip), vehicle: saline with Tween-80 104 % of control | dose: 1.56 mg/kg/injection, schedule: Q01DX009 (ip), vehicle: saline with Tween-80 106 % of control | [1] 96 % of control | dose: 3.13 mg/kg/injection, schedule: Q01DX009 (ip), vehicle: saline with Tween-80 112 % of control | [2] 100 % of control | dose: 6.25 mg/kg/injection, schedule: Q04DX003 (ip), vehicle: saline with Tween-80 104 % of control | dose: 8.33 mg/kg/injection, schedule: Q04DX003 (ip), vehicle: saline with Tween-80 104 % of control | [3] 105 % of control | [4] 109 % of control | dose: 18.7 mg/kg/injection, schedule: Q04DX003 (ip), vehicle: saline with Tween-80 113 % of control | [5] 118 % of control

C=CCn1c2c(c3ccccc3c1=O)C(=O)c1ccccc1-2
inactive: dose: 6.25 mg/kg/injection, schedule: Q01DX005 (ip), vehicle: saline with Tween-80 97 % of control | dose: 12.5 mg/kg/injection, schedule: Q01DX005 (ip), vehicle: saline with Tween-80 99 % of control | dose: 25.0 mg/kg/injection, schedule: Q01DX005 (ip), vehicle: saline with Tween-80 99 % of control | [6] 87 % of control

O=C1C[C@]2(CC3CO3)C[C@@H](C=CC23OCCO3)O1 (stereo partly drawn)
inactive: dose: 1.5 mg/kg/injection, schedule: Q01DX005 (ip), vehicle: acid diluted with saline 99 % of control | dose: 3.0 mg/kg/injection, schedule: Q01DX005 (ip), vehicle: acid diluted with saline 102 % of control | dose: 6.0 mg/kg/injection, schedule: Q01DX005 (ip), vehicle: acid diluted with saline 102 % of control | dose: 12.0 mg/kg/injection, schedule: Q01DX005 (ip), vehicle: acid diluted with saline 107 % of control

Nc1ccc(F)cc1S
inactive: [7] 118 % of control

CN(C)CCCSc1c2ccccc2nc2cccc([N+](=O)[O-])c12
inactive: dose: 60.0 mg/kg/injection, schedule: Q01DX005 (ip), vehicle: saline with Tween-80 94 % of control | dose: 120.0 mg/kg/injection, schedule: Q01DX005 (ip), vehicle: saline with Tween-80 106 % of control

O=C(CS(=O)(=O)c1ccccc1)c1ccccc1
inactive: dose: 100.0 mg/kg/injection, schedule: Q01DX009 (ip), vehicle: Klucel (hydroxypropylcellulose) (HPC) 101 % of control | dose: 200.0 mg/kg/injection, schedule: Q01DX009 (ip), vehicle: Klucel (hydroxypropylcellulose) (HPC) 101 % of control | dose: 400.0 mg/kg/injection, schedule: Q01DX009 (ip), vehicle: Klucel (hydroxypropylcellulose) (HPC) 105 % of control

S=c1nn[nH]n1-c1cccc2ccccc12
inactive: dose: 100.0 mg/kg/injection, schedule: Q04DX003 (ip), vehicle: saline sonified 90 % of control | dose: 200.0 mg/kg/injection, schedule: Q04DX003 (ip), vehicle: saline sonified 100 % of control | dose: 400.0 mg/kg/injection, schedule: Q04DX003 (ip), vehicle: saline sonified 100 % of control

CN(C)CCCOc1cccc(NC2=C(Cl)C(=O)C(Nc3cccc(OCCCN(C)C)c3)=C(Cl)C2=O)c1
inactive: dose: 6.25 mg/kg/injection, schedule: Q01DX005 (ip), vehicle: Klucel (hydroxypropylcellulose) (HPC) 99 % of control | dose: 12.5 mg/kg/injection, schedule: Q01DX005 (ip), vehicle: Klucel (hydroxypropylcellulose) (HPC) 100 % of control | dose: 25.0 mg/kg/injection, schedule: Q01DX005 (ip), vehicle: Klucel (hydroxypropylcellulose) (HPC) 109 % of control | dose: 50.0 mg/kg/injection, schedule: Q01DX005 (ip), vehicle: Klucel (hydroxypropylcellulose) (HPC) 100 % of control

O=Cc1ccc([N+](=O)[O-])s1
inactive: dose: 50.0 mg/kg/injection, schedule: Q01DX009 (ip), vehicle: saline 120 % of control

COc1ccc(C2CC(=O)N(c3nccc(C)n3)C(=O)C2)cc1
inactive: [8] 98 % of control | [9] 99 % of control | [10] 94 % of control

N/C(C/C(=N/OC(=O)c1ccccc1)OC(=O)c1ccccc1)=N/O
inactive: [8] 101 % of control | [9] 107 % of control | [10] 99 % of control

CC(O)C(NC(=O)c1cnc(OCc2ccccc2)nc1N)C(=O)O (stereo not drawn)
inactive: dose: 6.25 mg/kg/injection, schedule: Q01DX009 (ip), vehicle: saline with Tween-80 100 % of control | dose: 12.5 mg/kg/injection, schedule: Q01DX009 (ip), vehicle: saline with Tween-80 100 % of control | dose: 25.0 mg/kg/injection, schedule: Q01DX009 (ip), vehicle: saline with Tween-80 90 % of control

CCCCCCCCCC[n+]1cccc(C(N)=O)c1
inactive: [2] 100 % of control | [3] 109 % of control | dose: 20.0 mg/kg/injection, schedule: Q01DX009 (ip), vehicle: saline with Tween-80 113 % of control

CCOC(=O)C(C)OC1CCCCO1 (stereo not drawn)
inactive: dose: 50.0 mg/kg/injection, schedule: Q01DX009 (ip), vehicle: other 105 % of control | dose: 100.0 mg/kg/injection, schedule: Q01DX009 (ip), vehicle: other 95 % of control | dose: 200.0 mg/kg/injection, schedule: Q01DX009 (ip), vehicle: other 96 % of control

c1ccc2c(c1)CCc1cc(CN3CCOCC3)ccc1N2
inactive: dose: 60.0 mg/kg/injection, schedule: Q01DX005 (ip), vehicle: Klucel (hydroxypropylcellulose) (HPC) 111 % of control | dose: 120.0 mg/kg/injection, schedule: Q01DX005 (ip), vehicle: Klucel (hydroxypropylcellulose) (HPC) 108 % of control | dose: 240.0 mg/kg/injection, schedule: Q01DX005 (ip), vehicle: Klucel (hydroxypropylcellulose) (HPC) 105 % of control

Cc1nc2c(N)nn(C)c2nc1C
inactive: [11] 105 % of control | [7] 110 % of control | [12] 110 % of control

Nc1ccccc1N=Cc1c(O)c2ccccc2oc1=O
inactive: [13] 93 % of control | [6] 98 % of control

CN1C(=O)CNC(=O)c2ccc(Cl)cc21
inactive: [13] 108 % of control | [6] 90 % of control | dose: 200.0 mg/kg/injection, schedule: Q01DX005 (ip), vehicle: saline with Tween-80 115 % of control

NC1=NS(=O)(=O)Nc2nonc21
inactive: [11] 96 % of control | [7] 89 % of control | [12] 89 % of control

O=C1C=C(C/C=C/c2ccccc2)C(C/C=C/c2ccccc2)C=C1O (stereo not drawn)
inactive: dose: 0.32 mg/kg/injection, schedule: Q01DX009 (ip), vehicle: saline with Tween-80 102 % of control | dose: 0.63 mg/kg/injection, schedule: Q01DX009 (ip), vehicle: saline with Tween-80 107 % of control | dose: 1.25 mg/kg/injection, schedule: Q01DX009 (ip), vehicle: saline with Tween-80 103 % of control | [1] 102 % of control and 93 % of control | [3] 94 % of control

CCCCCCCCCCCCCCCCCCOP(=O)(CC(=O)NCc1cc(C(C)(C)C)c(O)c(C(C)(C)C)c1)OCCCCCCCCCCCCCCCCCC
inactive: [4] 96 % of control | [5] 101 % of control | dose: 50.0 mg/kg/injection, schedule: Q04DX003 (ip), vehicle: saline with Tween-80 92 % of control | dose: 100.0 mg/kg/injection, schedule: Q04DX003 (ip), vehicle: saline with Tween-80 86 % of control | dose: 200.0 mg/kg/injection, schedule: Q04DX003 (ip), vehicle: saline with Tween-80 100 % of control
